Laboratory results published in ChEMBL document CHEMBL1201862, “PubChem BioAssay data set” (2004).
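Step 1: Grow cells in 96-well plates. Step 2: Expose to compound for 48 hours at 5 concentrations. Step 3: Interpolate endpoints linearly; if unreached, use highest concentration. Abbreviation: GI50, concentration required for 50% inhibition of growth.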 Active and inactive are the calls of the source. Cut-off read from the data, not from the text of the source: active = GI50 up to about 1.1 µM and inactive = higher.

Experiments:
Assay in all cases: NCI anticancer screen, dose series, 48 h
[1] = system: A498
[2] = system: CAKI-1
[3] = system: HCC 2998
[4] = system: HCT-15
[5] = system: IGROV-1
[6] = system: KM12
[7] = system: M14
[8] = system: Malme-3M
[9] = system: OVCAR-4
[10] = system: SF-268
[11] = system: SF-539
[12] = system: SK-MEL-5
[13] = system: SK-OV-3
[14] = system: SNB-19
[15] = system: SW-620
[16] = system: TK-10
[17] = system: U-251
[18] = system: MOLT-4
[19] = system: MDA-N

SMILES	GI50 [1]	GI50 [2]	GI50 [3]	GI50 [4] [µM]	GI50 [5]	GI50 [6]	GI50 [7]	GI50 [8]	GI50 [9]	GI50 [10]	GI50 [11]	GI50 [12]	GI50 [13]	GI50 [14]	GI50 [15]	GI50 [16]	GI50 [17]	GI50 [18]	GI50 [19]
Oc1[nH]c(Nc2ccc(Cl)cc2)nc2ncnc1-2	> 100 µM (inactive)	> 100 µM (inactive)	98.6 µM (inactive)	> 100	> 100 µM (inactive)	> 100 µM (inactive)	89.1 µM (inactive)	> 100 µM (inactive)	64.7 µM (inactive)	55 µM (inactive)	> 100 µM (inactive)	> 100 µM (inactive)	> 100 µM (inactive)	33.1 µM (inactive)	> 100 µM (inactive)	> 100 µM (inactive)	> 100 µM (inactive)		
O=C(O)c1ccccc1-c1ccccc1C(=O)Nc1ccc2c(c1)nc(O)c1ccccc12	34.3 µM (inactive)	> 100 µM (inactive)		> 100	94.4 µM (inactive)	> 100 µM (inactive)	> 100 µM (inactive)	> 100 µM (inactive)	> 100 µM (inactive)	> 100 µM (inactive)	94.2 µM (inactive)	> 100 µM (inactive)	> 100 µM (inactive)	83.4 µM (inactive)	> 100 µM (inactive)	> 100 µM (inactive)	51.9 µM (inactive)	25.8 µM (inactive)	
Cc1cc(Cc2cc(C)c(N)cc2N)c(N)cc1N	> 100 µM (inactive)	> 100 µM (inactive)		> 100	4.38 µM (inactive)	85.5 µM (inactive)	> 100 µM (inactive)		> 100 µM (inactive)	89.3 µM (inactive)	80.2 µM (inactive)	> 100 µM (inactive)	> 100 µM (inactive)	> 100 µM (inactive)	> 100 µM (inactive)	> 100 µM (inactive)	> 100 µM (inactive)	33.3 µM (inactive)	> 100 µM (inactive)
CC(C)OC(=O)/C=C/C(=O)O/C=C/[N+](=O)[O-]	14.1 µM (inactive)	34 µM (inactive)	20.5 µM (inactive)	35	31.6 µM (inactive)	21.5 µM (inactive)	30 µM (inactive)	29.6 µM (inactive)	26.9 µM (inactive)	24.5 µM (inactive)	37.1 µM (inactive)	31.6 µM (inactive)	66.8 µM (inactive)	31.7 µM (inactive)	25.4 µM (inactive)	32.6 µM (inactive)	21.7 µM (inactive)	15.9 µM (inactive)	
Cn1c(N)c(-c2c3ccccc3nc3ccccc23)c(=O)n(C)c1=O	> 100 µM (inactive)	> 100 µM (inactive)		> 100	> 100 µM (inactive)	> 100 µM (inactive)	> 100 µM (inactive)	> 100 µM (inactive)	> 100 µM (inactive)	> 100 µM (inactive)	> 100 µM (inactive)	> 100 µM (inactive)	> 100 µM (inactive)		> 100 µM (inactive)	> 100 µM (inactive)	> 100 µM (inactive)	> 100 µM (inactive)	
COc1ccc(-n2c(N)c(C#N)c(C#N)c2-c2cccc([N+](=O)[O-])c2)cc1	> 100 µM (inactive)	> 100 µM (inactive)	> 100 µM (inactive)	> 100	23.8 µM (inactive)	62.5 µM (inactive)	> 100 µM (inactive)	> 100 µM (inactive)	26.5 µM (inactive)	51.9 µM (inactive)	32.4 µM (inactive)	22.9 µM (inactive)	43.7 µM (inactive)	49.8 µM (inactive)	> 100 µM (inactive)	> 100 µM (inactive)	38.8 µM (inactive)	2.46 µM (inactive)	
COc1cccc2c1-c1nc(N)c3c(OC)cccc3c1C2=O	> 100 µM (inactive)	> 100 µM (inactive)		28.9	> 100 µM (inactive)	16.1 µM (inactive)	> 100 µM (inactive)	> 100 µM (inactive)	62.8 µM (inactive)	68.4 µM (inactive)	> 100 µM (inactive)	> 100 µM (inactive)	> 100 µM (inactive)		> 100 µM (inactive)	> 100 µM (inactive)	> 100 µM (inactive)	53.5 µM (inactive)	> 100 µM (inactive)
O=S(=O)(O)c1cccc2ccc(O)c(/N=N\c3ccc(S(=O)(=O)c4ccc(/N=N/c5c(O)ccc6cccc(S(=O)(=O)O)c56)cc4)cc3)c12		> 100 µM (inactive)		> 100	81.5 µM (inactive)	67.3 µM (inactive)	> 100 µM (inactive)	> 100 µM (inactive)	> 100 µM (inactive)	> 100 µM (inactive)		> 100 µM (inactive)	> 100 µM (inactive)	> 100 µM (inactive)	> 100 µM (inactive)	> 100 µM (inactive)	> 100 µM (inactive)	> 100 µM (inactive)	> 100 µM (inactive)
N#CC(/C(=N/NC(=O)C(=O)NN)C(=O)Nc1nc([N+](=O)[O-])cs1)c1ccc(Cl)cc1 (stereo unspecified)			> 100 µM (inactive)		> 100 µM (inactive)	> 100 µM (inactive)	> 100 µM (inactive)	> 100 µM (inactive)	> 100 µM (inactive)	> 100 µM (inactive)		> 100 µM (inactive)		> 100 µM (inactive)	> 100 µM (inactive)	> 100 µM (inactive)	> 100 µM (inactive)	> 100 µM (inactive)	
O=c1cc(CC(O)(C(F)(F)Cl)C(F)(F)Cl)[nH]n1-c1ccccc1	> 100 µM (inactive)		> 100 µM (inactive)	> 100	> 100 µM (inactive)	> 100 µM (inactive)	> 100 µM (inactive)	> 100 µM (inactive)	> 100 µM (inactive)	> 100 µM (inactive)	> 100 µM (inactive)	> 100 µM (inactive)	> 100 µM (inactive)	> 100 µM (inactive)	> 100 µM (inactive)	> 100 µM (inactive)	> 100 µM (inactive)	> 100 µM (inactive)	
CC(=O)Oc1c(OC(C)C)c(C)c(O[Si](C(C)C)(C(C)C)C(C)C)c2[nH]c3ccccc3c12		67.1 µM (inactive)		> 75.7	> 100 µM (inactive)	67.3 µM (inactive)	> 94.6 µM (inactive)		57.8 µM (inactive)	> 100 µM (inactive)	> 100 µM (inactive)	> 100 µM (inactive)	> 100 µM (inactive)	> 100 µM (inactive)	> 83.4 µM (inactive)	> 100 µM (inactive)	99.5 µM (inactive)	12 µM (inactive)	> 100 µM (inactive)
NC1(CCNC(=O)c2ccccc2)CCN(C(=O)c2ccccc2)CC1		> 100 µM (inactive)		> 100	> 100 µM (inactive)	> 100 µM (inactive)	> 100 µM (inactive)	29.2 µM (inactive)		> 100 µM (inactive)	> 100 µM (inactive)	> 100 µM (inactive)	> 100 µM (inactive)	> 100 µM (inactive)	> 100 µM (inactive)	> 100 µM (inactive)	> 100 µM (inactive)	> 100 µM (inactive)	> 100 µM (inactive)
COc1cc(/C=C/C(=O)OC[C@H](Br)[C@H](OC(C)=O)c2ccc3c(c2)OCO3)cc(OC)c1OC	> 100 µM (inactive)	> 100 µM (inactive)	80.4 µM (inactive)	> 100	> 100 µM (inactive)	> 100 µM (inactive)	> 100 µM (inactive)	> 100 µM (inactive)	> 100 µM (inactive)	> 100 µM (inactive)	> 100 µM (inactive)	> 100 µM (inactive)	> 100 µM (inactive)	> 100 µM (inactive)	> 100 µM (inactive)	> 100 µM (inactive)	> 100 µM (inactive)	7.69 µM (inactive)	
O=C(O)c1cc(-c2ccccc2O)nc2ccccc12	> 100 µM (inactive)	> 100 µM (inactive)	> 100 µM (inactive)	> 100	> 100 µM (inactive)	> 100 µM (inactive)	> 100 µM (inactive)	> 100 µM (inactive)	> 100 µM (inactive)	> 100 µM (inactive)	> 100 µM (inactive)	> 100 µM (inactive)	> 100 µM (inactive)	> 100 µM (inactive)	> 100 µM (inactive)	> 100 µM (inactive)	> 100 µM (inactive)	> 100 µM (inactive)	
CCOC(=O)c1c(N2CCCC2)ncn(C)c1=S	> 100 µM (inactive)	> 100 µM (inactive)	> 100 µM (inactive)	> 100	> 100 µM (inactive)	> 100 µM (inactive)	> 100 µM (inactive)	> 100 µM (inactive)	> 100 µM (inactive)	> 100 µM (inactive)	> 100 µM (inactive)	> 100 µM (inactive)		> 100 µM (inactive)	> 100 µM (inactive)	> 100 µM (inactive)	> 100 µM (inactive)	> 100 µM (inactive)	
O=C(CCc1ccccc1)ON1C(=S)C(c2ccccc2)(c2ccccc2)N=C1Sc1ccccc1	> 100 µM (inactive)	74.1 µM (inactive)	46.6 µM (inactive)	24.9	6.53 µM (inactive)	32.6 µM (inactive)	82.6 µM (inactive)	48.1 µM (inactive)	58.1 µM (inactive)	22.7 µM (inactive)	44.6 µM (inactive)	37.5 µM (inactive)	45.1 µM (inactive)	52.7 µM (inactive)		89.9 µM (inactive)		4 µM (inactive)	
CCC(=O)OC1=C(c2ccccc2)Sc2ccc(Cl)cc2-n2cccc21		> 10 µM (inactive)	> 10 µM (inactive)	4.69	> 10 µM (inactive)	9.04 µM (inactive)	> 10 µM (inactive)	> 10 µM (inactive)	> 10 µM (inactive)	> 10 µM (inactive)		> 10 µM (inactive)	> 10 µM (inactive)		7.67 µM (inactive)	> 10 µM (inactive)		7.71 µM (inactive)	
